From ChEMBL document CHEMBL3885861, “Open TG-GATES”

Organism: Rattus norvegicus
Assay: Open TG-GATES - Regimen: Single
Type: toxicity, organism-based, Sprague-Dawley
Design: regimen Single, gender Male, age 6 weeks
Conditions: in vivo, po, 30 mg/kg, route gavage, dose level Low; for APTT / Bas / Eos / Fbg / Hb / Ht / Lym / MCH / MCHC / MCV / Mono / Neu / PT / Plat / RBC / Ret / WBC: tissue Blood; for KIDNEY_L / KIDNEY_R / KIDNEY_TOTAL: tissue Kidney; for LIVER: tissue Liver; for A/G / ALP / ALT / AST / BUN / CRE / Ca / Cl / DBIL / GLC / IP / K / LDH / Na / PL / RALB / TBIL / TC / TG / TP / gamma-GTP: tissue Plasma

How did the TERMINAL_BW (3 h) turn out when `CCOC(=O)C(C)(C)Oc1ccc(Cl)cc1` [CLOFIBRATE] was run?
Its TERMINAL_BW is 228.4 g.

What about the APTT (3 h) of the same molecule?
The APTT was 19.1 s.

And the Bas (3 h)?
The Bas was 0%.

And the Eos (3 h)?
The Eos was 1%.

And the Fbg (3 h)?
Its Fbg is 234.4 mg/dL.

And the Hb (3 h)?
The Hb was 13.3 g/dL.

And the Ht (3 h)?
Its Ht is 38.4%.

What about the Lym (3 h) of the same molecule?
The Lym was 80.4%.

What about the MCH (3 h) of the same molecule?
Its MCH is 21.8 pg.

And the MCHC (3 h)?
Its MCHC is 34.6%.

And the MCV (3 h)?
Its MCV is 62.9 fL.

What about the Mono (3 h) of the same molecule?
Its Mono is 2.6%.

What about the Neu (3 h) of the same molecule?
Its Neu is 15.6%.

What about the PT (3 h) of the same molecule?
The PT was 12.3 s.

What about the Plat (3 h) of the same molecule?
The Plat was 121.4 x10_4/uL.

What about the RBC (3 h) of the same molecule?
Its RBC is 611.2 x10_4/ul.

And the Ret (3 h)?
Its Ret is 7.5%.

What about the WBC (3 h) of the same molecule?
Its WBC is 87.8 x10_2/uL.

What about the KIDNEY_L (3 h) of the same molecule?
Its KIDNEY_L is 1 g.

What about the KIDNEY_R (3 h) of the same molecule?
The KIDNEY_R was 1 g.

What about the KIDNEY_TOTAL (3 h) of the same molecule?
Its KIDNEY_TOTAL is 2 g.

What about the LIVER (3 h) of the same molecule?
Its LIVER is 10.5 g.

What about the A/G (3 h) of the same molecule?
The A/G was 1.6.

What about the ALP (3 h) of the same molecule?
Its ALP is 1038.6 IU/L.

What about the ALT (3 h) of the same molecule?
The ALT was 38.8 IU/L.

And the AST (3 h)?
Its AST is 71 IU/L.

What about the BUN (3 h) of the same molecule?
Its BUN is 12.2 mg/dL.

What about the CRE (3 h) of the same molecule?
Its CRE is 0.3 mg/dL.

What about the Ca (3 h) of the same molecule?
Its Ca is 11.2 mg/dL.

What about the Cl (3 h) of the same molecule?
The Cl was 102.4 meq/L.

What about the DBIL (3 h) of the same molecule?
Its DBIL is 0.4 mg/dL.

And the GLC (3 h)?
The GLC was 199.2 mg/dL.

And the IP (3 h)?
Its IP is 9 mg/dL.

What about the K (3 h) of the same molecule?
The K was 3.9 meq/L.

What about the LDH (3 h) of the same molecule?
Its LDH is 199.6 IU/L.

What about the Na (3 h) of the same molecule?
Its Na is 139.6 meq/L.

What about the PL (3 h) of the same molecule?
Its PL is 178.4 mg/dL.

And the RALB (3 h)?
Its RALB is 3.4 g/dL.

What about the TBIL (3 h) of the same molecule?
The TBIL was 0.4 mg/dL.

What about the TC (3 h) of the same molecule?
The TC was 84 mg/dL.

And the TG (3 h)?
Its TG is 194 mg/dL.

And the TP (3 h)?
The TP was 5.6 g/dL.

And the gamma-GTP (3 h)?
The gamma-GTP was 1.2 IU/L.

What about the TERMINAL_BW (6 h) of the same molecule?
Its TERMINAL_BW is 224.5 g.

What about the APTT (6 h) of the same molecule?
Its APTT is 18.6 s.

And the Bas (6 h)?
Its Bas is 0%.

And the Eos (6 h)?
Its Eos is 1%.

What about the Fbg (6 h) of the same molecule?
Its Fbg is 230 mg/dL.

What about the Hb (6 h) of the same molecule?
Its Hb is 13.5 g/dL.

What about the Ht (6 h) of the same molecule?
Its Ht is 38.9%.

And the Lym (6 h)?
The Lym was 78.4%.

What about the MCH (6 h) of the same molecule?
The MCH was 21.7 pg.

What about the MCHC (6 h) of the same molecule?
Its MCHC is 34.7%.

What about the MCV (6 h) of the same molecule?
The MCV was 62.5 fL.

And the Mono (6 h)?
The Mono was 2.6%.

And the Neu (6 h)?
Its Neu is 17.2%.

What about the PT (6 h) of the same molecule?
Its PT is 12.3 s.

And the Plat (6 h)?
The Plat was 125.7 x10_4/uL.

And the RBC (6 h)?
The RBC was 623.2 x10_4/ul.

And the Ret (6 h)?
The Ret was 7.3%.

What about the WBC (6 h) of the same molecule?
Its WBC is 115.7 x10_2/uL.

And the KIDNEY_L (6 h)?
The KIDNEY_L was 1 g.

And the KIDNEY_R (6 h)?
Its KIDNEY_R is 1 g.

And the KIDNEY_TOTAL (6 h)?
Its KIDNEY_TOTAL is 1.9 g.

What about the LIVER (6 h) of the same molecule?
The LIVER was 9.8 g.

What about the A/G (6 h) of the same molecule?
Its A/G is 1.6.

And the ALP (6 h)?
The ALP was 1119.8 IU/L.

And the ALT (6 h)?
The ALT was 35.4 IU/L.

And the AST (6 h)?
The AST was 69.2 IU/L.

And the BUN (6 h)?
Its BUN is 7.8 mg/dL.

And the CRE (6 h)?
The CRE was 0.4 mg/dL.

What about the Ca (6 h) of the same molecule?
The Ca was 10.7 mg/dL.

And the Cl (6 h)?
Its Cl is 103.8 meq/L.

And the DBIL (6 h)?
Its DBIL is 0.1 mg/dL.

What about the GLC (6 h) of the same molecule?
The GLC was 194.6 mg/dL.

And the IP (6 h)?
Its IP is 9 mg/dL.

And the K (6 h)?
The K was 4 meq/L.

What about the LDH (6 h) of the same molecule?
Its LDH is 273 IU/L.

What about the Na (6 h) of the same molecule?
Its Na is 140.8 meq/L.

What about the PL (6 h) of the same molecule?
The PL was 143.6 mg/dL.

And the RALB (6 h)?
The RALB was 3.5 g/dL.

What about the TBIL (6 h) of the same molecule?
The TBIL was 0.2 mg/dL.

What about the TC (6 h) of the same molecule?
Its TC is 73 mg/dL.

What about the TG (6 h) of the same molecule?
The TG was 88 mg/dL.

And the TP (6 h)?
The TP was 5.7 g/dL.

What about the gamma-GTP (6 h) of the same molecule?
The gamma-GTP was 1.4 IU/L.
